Patent publication US12122761B2, “2-azaspiro[3.4]octane derivatives as M4 agonists” (NOVARTIS AG, priority 2019, dated 2024)

Target: T1, Cloned human M1 receptor (CHRM1) stably expressed in HEK293 cells (Homo sapiens, UniProt P11229)
T1 construct: expressed in transfected cells; host or cells: HEK293
T1 sequence (P11229 1-460): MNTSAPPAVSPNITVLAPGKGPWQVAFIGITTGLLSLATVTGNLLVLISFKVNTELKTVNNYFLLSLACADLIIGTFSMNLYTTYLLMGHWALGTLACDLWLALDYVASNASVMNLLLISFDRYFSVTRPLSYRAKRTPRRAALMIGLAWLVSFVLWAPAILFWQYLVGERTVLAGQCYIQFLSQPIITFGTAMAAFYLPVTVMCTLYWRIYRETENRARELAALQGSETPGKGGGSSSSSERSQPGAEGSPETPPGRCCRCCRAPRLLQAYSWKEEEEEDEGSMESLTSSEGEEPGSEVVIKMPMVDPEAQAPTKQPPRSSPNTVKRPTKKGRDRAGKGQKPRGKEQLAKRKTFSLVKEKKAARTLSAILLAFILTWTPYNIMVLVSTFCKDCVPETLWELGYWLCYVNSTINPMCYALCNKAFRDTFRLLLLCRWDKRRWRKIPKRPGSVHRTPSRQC
Experiment: CHRM1 Ca++ Flux Assay (agonist mode, FDSS 7000EX)
Type: cell-based
Conditions: for Emax: HEK293, Percent Activity, read-out: M1 FDSS PA; for EC50: geometric mean if tested more than once
Procedure, shortened: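 Compounds tested as agonists at 11 concentrations in triplicate, with calcium traces captured over 3 minutes. Cells were HEK293 with stable human CHRM1 expression, plated overnight at 25K/well and loaded with calcium dye. Responses normalized to carbachol EC100 and fitted by four-parameter nonlinear regression.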

SMILES | Emax | EC50
O=C(C1COC1)N1CC2(CC[C@H](N3CCC(c4ccccc4OC(F)(F)F)CC3)C2)C1 (single isomer, unassigned) [Example 8G] | 0% | > 25000 nM
COCCOc1ccccc1C1CCN([C@@H]2CCC3(C2)CN(c2ncns2)C3)CC1 [Example 3J, (R)-5-(6-(4-(2-(2-methoxyethoxy)phenyl)piperidin-1-yl)-2-azaspiro[3.4]octan-2-yl)-1,2,4-thiadiazole] | 58% | 85 nM
O=C(C1COC1)N1CC2(CC[C@@H](N3CCC(c4ccccc4OCCC(F)(F)F)CC3)C2)C1 [Example 7GG, (R)-oxetan-3-yl(6-(4-(2-(3,3,3-trifluoropropoxy)phenyl)piperidin-1-yl)-2-azaspiro[3.4]octan-2-yl)methanone] | 91% | 39 nM
CC(C)Oc1cc(F)ccc1C1CCN([C@@H]2CCC3(C2)CN(C(=O)C2COC2)C3)CC1 [Example 6D, (R)-(6-(4-(4-fluoro-2-isopropoxyphenyl)piperidin-1-yl)-2-azaspiro[3.4]octan-2-yl)(oxetan-3-yl)methanone] | 18% | 18 nM
O=C(C1COC1)N1CC2(CC[C@@H](N3CCC(c4ccccc4OC4CCC4)CC3)C2)C1 [Example 7H, (R)-(6-(4-(2-cyclobutoxyphenyl)piperidin-1-yl)-2-azaspiro[3.4]octan-2-yl)(oxetan-3-yl)methanone] | 71% | 9 nM
COCCOc1ccccc1C1CCN([C@@H]2CCC3(C2)CN(c2ccnnc2)C3)CC1 [Example 5Z, (R)-6-(4-(2-(2-methoxyethoxy)phenyl)piperidin-1-yl)-2-(pyridazin-4-yl)-2-azaspiro[3.4]octane] | 21% | 413 nM
O=C(C1COC1)N1CC2(CC[C@@H](N3CCC(c4ccccc4OCC(F)F)CC3)C2)C1 [Example 7JJ, (R)-(6-(4-(2-(2,2-difluoroethoxy)phenyl)piperidin-1-yl)-2-azaspiro[3.4]octan-2-yl)(oxetan-3-yl)methanone] | 87% | 12 nM
COc1ccccc1C1CCN([C@@H]2CCC3(C2)CN(c2nc(C)ns2)C3)CC1 [Example 3M, (R)-5-(6-(4-(2-methoxyphenyl)piperidin-1-yl)-2-azaspiro[3.4]octan-2-yl)-3-methyl-1,2,4-thiadiazole] | 0% | > 25000 nM
CC(C)(O)CCOc1ccccc1C1CCN([C@@H]2CCC3(C2)CN(c2nncs2)C3)CC1 [Example 3H, (R)-4-(2-(1-(2-(1,3,4-thiadiazol-2-yl)-2-azaspiro[3.4]octan-6-yl)piperidin-4-yl)phenoxy)-2-methylbutan-2-ol] | 84% | 20 nM
CC(C)(F)COc1ccccc1C1CCN([C@@H]2CCC3(C2)CN(C(=O)C2COC2)C3)CC1 [Example 7B, (R)-(6-(4-(2-(2-fluoro-2-methylpropoxy)phenyl)piperidin-1-yl)-2-azaspiro[3.4]octan-2-yl)(oxetan-3-yl)methanone] | 78% | 15 nM

Results, then the compound that gave them:

Emax | EC50 | SMILES
78% | 381 nM | CC1(COc2ccccc2C2CCN([C@@H]3CCC4(C3)CN(c3nnco3)C4)CC2)CCOCC1 [Example 2E, (R)-2-(6-(4-(2-((4-methyltetrahydro-2H-pyran-4-yl)methoxy)phenyl)piperidin-1-yl)-2-azaspiro[3.4]octan-2-yl)-1,3,4-oxadiazole]
85% | 24 nM | c1ccc(C2CCN([C@@H]3CCC4(C3)CN(c3cncnc3)C4)CC2)c(OC2COC2)c1 [Example 1K, (R)-6-(4-(2-(oxetan-3-yloxy)phenyl)piperidin-1-yl)-2-(pyrimidin-5-yl)-2-azaspiro[3.4]octane]
43% | 98 nM | c1ccc(C2CCN([C@@H]3CCC4(C3)CN(c3cncnc3)C4)CC2)c(O[C@@H]2CCOC2)c1 [Example 1P, (R)-2-(pyrimidin-5-yl)-6-(4-(2-(((R)-tetrahydrofuran-3-yl)oxy)phenyl)piperidin-1-yl)-2-azaspiro[3.4]octane]
36% | 335 nM | Fc1ccc(N2CC3(CC[C@@H](N4CCC(c5ccccc5C5CCOCC5)CC4)C3)C2)cn1 [Example 5CC, (R)-2-(6-fluoropyridin-3-yl)-6-(4-(2-(tetrahydro-2H-pyran-4-yl)phenyl)piperidin-1-yl)-2-azaspiro[3.4]octane]
97% | 133 nM | c1ccc(C2CCOC2)c(C2CCN([C@@H]3CCC4(C3)CN(c3nnco3)C4)CC2)c1 (stereo partly drawn) [Example 2K, 2-((6R)-6-(4-(2-(tetrahydrofuran-3-yl)phenyl)piperidin-1-yl)-2-azaspiro[3.4]octan-2-yl)-1,3,4-oxadiazole]
68% | 40 nM | COCCOc1ccccc1C1CCN([C@@H]2CCC3(C2)CN(c2nncs2)C3)CC1 [Example 3F, (R)-2-(6-(4-(2-(2-methoxyethoxy)phenyl)piperidin-1-yl)-2-azaspiro[3.4]octan-2-yl)-1,3,4-thiadiazole]
82% | 141 nM | FC1(COc2ccccc2C2CCN([C@@H]3CCC4(C3)CN(c3nnco3)C4)CC2)CCOCC1 [Example 2D, (R)-2-(6-(4-(2-((4-fluorotetrahydro-2H-pyran-4-yl)methoxy)phenyl)piperidin-1-yl)-2-azaspiro[3.4]octan-2-yl)-1,3,4-oxadiazole]
78% | 182 nM | FC1(COc2ccccc2C2CCN([C@@H]3CCC4(C3)CN(c3nncs3)C4)CC2)CCOCC1 [Example 1J, (R)-2-(6-(4-(2-((4-fluorotetrahydro-2H-pyran-4-yl)methoxy)phenyl)piperidin-1-yl)-2-azaspiro[3.4]octan-2-yl)-1,3,4-thiadiazole]
